In patent publication US20050152959A1, “Use of a lysolipid for the preparation of a composition for transfection of a polynucleotide into a cell” (Transgene S. A., priority 2001, published 2005):

Key:
RENCA cells = assay: Intratumoral transfer of luciferase plasmid pTG11236 with HPC into RENCA tumors, luciferase measurement; type: in vivo; settings: RENCA tumors in B6D2 mice; 50 μl intratumoral, 0.4, 2 or 10 μg plasmid pTG11236 with 2 mg/ml HPC; 24 hours after last injection; compared with no HPC
Description: (§1) FIG. 1: show the effect of hexadecylphosphocholine (HPC) on intratumoral transfer of the luciferase-plasmid (pTG11236) into RENCA cells. Bars are means of RLU per minute per mg protein. Luciferase activity was measured 24 hours after the last injection of 50 μl of a composition, comprising between 0.4, 2 or 10 μg of plasmid and 2 mg/ml of HPC, into B6D2 mice. Plasmid DNA (pTG11236: CMV promoter, β-globin intron, luciferase cassette, 5739 base pairs) was prepared according to Bischoff et al., Analytical Biochemistry 254 (1997), 69-81. RENCA or P815 cells were injected under the skin of 6 to 8 week old B6D2 female mice (3 10^5 cells/animal). Eleven days after the injection of the cells, palpable tumours appear. Prior to intratumoral injection HPC was mixed with the plasmid DNA preparation Then, various quantities of plasmid and HPC were directly injected into the tumor three times (with three day-time interval between subsequent injection). Twenty four hours after injection of the composition, the mice were killed and the tumors were retrieved and frozen. Luciferase activity was quantified on whole tumor extracts using a conventional measurement kit (Luciferase Assay System, Promega). […] Luciferase activity was expressed as number of RLU emitted per minute, per mg of protein. Protein was measured on 10 μl samples using a VCA Protein Assay kit (Pierce).

P815 cells = assay: Intratumoral transfer of luciferase plasmid pTG11236 with HPC into P815 tumors, luciferase measurement; type: in vivo; settings: P815 tumors in B6D2 mice; 50 μl intratumoral, 10 μg plasmid pTG11236 with 0.4 mg/ml HPC; 24 hours after last injection; compared with no HPC
Description: as §1, with “FIG. 2:” for “FIG. 1:”, “of HPC” for “of hexadecylphosphocholine (HPC)”, “into P815” for “into RENCA”, “comprising” for “comprising between 0.4, 2 or”, “and 0.4” for “and 2”, “Promega). Briefly, tumors were diluted in 200 μl of reporter lysis buffer (Promega).” for “Promega).”

CCCCCCCCCCCCCCCCOP(=O)([O-])OCC[N+](C)(C)C [HPC, hexadecylphosphocholine]
Luciferase activity of the injected tumors (RLU per minute per mg protein) (RENCA cells): higher
Luciferase activity of the injected tumors (RLU per minute per mg protein) (P815 cells): higher
